The text below walks through data of patent US20240400579A1, “SPIROCYCLIC MODULATORS OF CHOLESTEROL BIOSYNTHESIS AND THEIR USE FOR PROMOTING REMYELINATION” (GENENTECH, INC., priority 2021, published 2024).

The subject of one assay is EpiSC-derived OPCs. The experiment in a line: In vitro phenotypic screening of OPCs, MBP high-content imaging. As to conditions: Mus musculus, 72 h, percentage of MBP+ oligodendrocytes; 3 days; 0.5 nM to 1000 nM; read-out: mOPC EC50. In kind it is cell-based, mouse. As to the method: (§1) To assess effects of treatments on OPCs, all treatments were assayed in two or more independent platings of epiblast stem cell-derived OPCs (EpiSC). EpiSC-derived OPCs were obtained using in vitro differentiation protocols and culture conditions described previously (Najm et al, 2011, Nature Methods). OPCs were expanded and frozen down in aliquots. OPCs were thawed into growth conditions for at least one passage before use in further assays.
EpiSC-derived OPCs were grown and expanded in poly-L-ornithine (PO) and laminin-coated flasks in N2B27 media (DMEM/F12 (Gibco), N2-MAX (R&D Systems), B-27 (ThermoFisher), and GlutaMax (Gibco)) supplemented with FGF2 ([…], R&D systems, 233-FB-025) and PDGF-AA ([…], R&D systems, 233-AA-050) before harvesting for experiments. The cells were seeded onto poly-L-ornithine or poly-D-lysine coated CellCarrier Ultra plates (PerkinElmer) coated with laminin (Sigma, L2020) at a density of 150,000/cm^2 in N2B27 media without growth factors. For dose-response testing, a 1000× compound stock in dimethyl sulphoxide (DMSO) was added to assay plates, resulting in 8-point dose curves with final concentrations between 1000 nM and 0.5 nM. Positive controls and DMSO vehicle controls were included in each assay plate. Cells were incubated under standard conditions (37° C., 5% CO2) for 3 days and fixed with 4% paraformaldehyde (PFA) in phosphate buffered saline (PBS) for 20 min. Fixed plates were washed with PBS, permeabilized with 0.1% Triton X-100, and blocked with 10% donkey serum (v/v) in PBS for 40 min. Then, cells were labelled with MBP antibodies (Abcam, ab7349; 1:200) for 2 h at room temperature, washed with PBS, and stained with Alexa Fluor conjugated secondary antibodies (1:500) for 45 min. Nuclei were visualized by DAPI staining (Sigma; 1 μg/ml), followed by further PBS washes.
Cells and cell culture plates were imaged on the Operetta High Content Imaging and Analysis system (PerkinElmer). Analysis (PerkinElmer Harmony and Columbus software) began by identifying intact nuclei stained by DAPI. The peri-nuclear region of each cell was then cross-referenced with the mature myelin protein (MBP) stain to identify oligodendrocyte nuclei, and from this the percentage of oligodendrocytes was calculated. EC50 values were calculated using The Levenberg-Marquardt algorithm to fit a Hill equation to dose-response data (0.5 nM to 1000 nM).

Assay [1] deals with zymostenol accumulation in EpiSC-derived OPCs (EBP). The experiment in a line: GC/MS-based sterol profiling, zymostenol accumulation. The format is cell-based, mouse. As to conditions: Mus musculus, 24 h, 8 doses from 0.15 nM to 333 nM, read-out: mZymo GCMS EC50. How it is done:
as §1
Sterols were monitored using a modified Folch wash protocol (Hubler et al, 2018, Nature). EpiSC-derived OPCs were plated at 100,000 cells per well in PO— and laminin-coated 96-well plates in N2B27 media without growth factors. After 24 hours, cells were rinsed with saline and plates were frozen. Cholesterol-d7 standard was then added to each well before drying under nitrogen stream and derivatization with 55 μl of bis(trimethylsilyl) trifluoroacetamide. After derivatization, 2 μl were analyzed by gas chromatography/mass spectrometry using an Agilent 5973 Network Mass Selective Detector equipped with a 6890 gas chromatograph system and a HP-5MS capillary column (30 m x 0.25 mm×[…]). Samples were analyzed in full scan mode using electron impact ionization; ion fragment peaks were integrated to calculate sterol abundance, and quantitation was relative to cholesterol-d7. The following ion fragments were used to quantitate each metabolite: cholesterol-d7 (465), FF-Mas (482), cholesterol (368), zymostenol (458), zymosterol (456), Desmosterol (456, 343), 7-dehydrocholesterol (456, 325), lanosterol (393), lathosterol (458), 14-dehydrozymostenol (456, 351). […] All standards were obtained from Avanti Polar Lipids unless otherwise indicated. Calibration curves were generated by injecting varying concentrations of sterol standards and maintaining a fixed amount of cholesterol-D7. For normalized zymostenol accumulation results, the total amount of zymostenol measured after drug treatment was divided by the total amount of zymostenol accumulated after 24 hr treatment with 100 nM positive control reference.

The target of assay [2] is human emopamil binding protein and human 7-dehydrocholesterol reductase co-expressing cell membrane (Homo sapiens (Human), UniProt Q15125). Description: hEBP-DHCR7 radioligand filtration binding assay with [3H]-Compound 118A*. As to conditions: radioligand [3H]-Compound 118A*; HEK293 membrane co-expressing hEBP and DHCR7. As to the method:
Membrane Preparation: human emopamil binding protein and human 7-dehydrocholesterol reductase co-expressing cells were generated by transient transfecting host human embryonic kidney (HEK) 293 cells with 2 DNA constructs containing each protein's coding sequence. Cells were suspension cultured at 37° C. with 5% CO2 in […] 293 Expression Medium (Thermofisher). Whole cell membrane was prepared by harvesting the cell pellet, adding cold membrane buffer (50 mM Tris, pH7.5, 1× Roche COMPLETE EDTA-free protease inhibitor cocktail) 10 times volume of the cell pellets weight, lysing cell pellet on ice by using Dounce homogenizer, spinning at 200 g 4° C. for 15 min, collecting supernatant and spinning again at 25000 g 4° C. for 50 min, transferring pellet to Dounce homogenizer, re-suspending pellet by homogenizing in membrane buffer on ice to reach ˜25 mg/mL, then keeping whole cell membrane aliquots at −80° C.
Compounds were prepared in a 96-well U bottom plate using an Echo550 machine and 10 mM compound DMSO stock solution, followed by an 8-dose 5-fold serial dilutions protocol with final testing compound concentration ranging from 0.06 to 5000 nM, with DMSO back fill to 100 nL/well and n=2. […] The UniFilter-96 GF/B plates were pre-treated by adding 50 μl/well of 0.3% (v/v) PEI to UniFilter-96 GF/B plates. The plates were sealed and incubated at 4° C. for 3 hrs. Then, the plates were washed with ice-cold assay buffer 3 times. The radioligand binding assay was prepared by adding assay buffer diluted hEBP-DHCR7 membrane at 66.7 μg/ml x 150 μl/well into the 96-well compound plate to reach 10 μg membrane per well. Then, the assay buffer diluted [3H]-Compound 118A* was added at 25 nM×50 μl/well. Following this, the plate was centrifuged at 1000 rpm for 30 secs. The plate was then sealed and agitated at 600 rpm at 22° C. for 5 min, and then incubated at 22° C. for 3 hrs. The incubation was stopped by transferring the binding solution to the pre-treated UniFilter-96 GF/B plate, vacuum filtrated, and then washed four times with ice-cold assay buffer. Following this, the plates were dried at 37° C. for 45 min. The plates were then sealed at the bottom. 40 μl/well of scintillation cocktail was added to the plates. A MicroBeta2 microplate counter was then used to read the plate and analyze the data. For reference and test compounds, the results are expressed as % Inhibition, using the normalization equation: N=100-100×(U−C2)/(C1−C2), where U is the unknown value, C1 is the average of high controls, and C2 is the average value of low controls. The IC50 was determined by fitting percentage of inhibition as a function of compound concentrations with Hill equation using XLfit. Results are expressed as hEBP-DHCR7 Ki (uM) in Table 4. Ki was calculated as described above.

Molecules are shown by their SMILES.

Chain of human emopamil binding protein and human 7-dehydrocholesterol reductase co-expressing cell membrane (Q15125 whole entry): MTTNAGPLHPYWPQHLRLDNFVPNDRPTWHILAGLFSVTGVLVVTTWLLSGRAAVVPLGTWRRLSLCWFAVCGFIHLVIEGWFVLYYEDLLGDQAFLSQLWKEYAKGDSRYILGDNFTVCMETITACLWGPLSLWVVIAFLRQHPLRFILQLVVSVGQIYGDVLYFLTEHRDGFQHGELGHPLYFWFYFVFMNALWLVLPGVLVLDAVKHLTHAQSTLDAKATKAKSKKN

`O=S1(=O)CC2(CCN(CCCc3ccc(OC(F)(F)F)cc3)CC2)C1` [Compound 213, 7-(3-(4-(Trifluoromethoxy)phenyl)propyl)-2-thia-7-azaspiro[3.5]nonane 2,2-dioxide]: the EC50 in the assay on EpiSC-derived OPCs worked out at 4.7 nM; in assay [1] it was 5 nM. The Ki in assay [2] worked out at 12 nM.

As to `C[C@@H](Cc1ccc(C(F)(F)F)cc1)CN1CCC2(CC1)CS(=O)(=O)C2` (single isomer, unassigned) [216A*], the EC50 with EpiSC-derived OPCs came to 1.4 nM; in assay [1], 0.95 nM. Moreover, in assay [2], the affinity corresponds to a Ki of 9.98 nM.

Consider `O=S1(=O)CC2(CCN(CCOc3ccc(F)cc3F)CC2)C1` [Example 204, 7-(2-(2,4-Difluorophenoxy)ethyl)-2-thia-7-azaspiro[3.5]nonane 2,2-dioxide], for which the EC50 was determined as 6.8 nM in the assay with EpiSC-derived OPCs and 2.3 nM in assay [1]. Besides, the affinity in assay [2] corresponds to a Ki of 28.9 nM.

For `O=S1(=O)CC2(CCN(CCOc3ccnc(C(F)(F)F)c3)CC2)C1` [Compound 236, 7-(2-((2-(Trifluoromethyl)pyridin-4-yl)oxy)ethyl)-2-thia-7-azaspiro[3.5]nonane 2,2-dioxide], the figures for the EC50 (with EpiSC-derived OPCs; in assay [1]) were 3.89 nM and 2.64 nM, respectively. In assay [2], the affinity, expressed as Ki, was 17 nM.

In the case of `CC(C)n1nc(C(F)(F)F)cc1C[C@@H](C)CN1CCC2(C1)CS(=O)(=O)C2` (single isomer, unassigned) [235A*], the EC50 in the assay with EpiSC-derived OPCs stood at 19.9 nM; in assay [1] it was 6.1 nM. Further, the Ki in assay [2] was 19.7 nM.

With `C[C@H](Cc1ccc(C(F)(F)F)cc1)CN1CC2(CCS(=O)(=O)CC2)C1` (single isomer, unassigned) [232A*], the EC50 worked out at 5.6 nM in the assay with EpiSC-derived OPCs and 2 nM in assay [1]. In assay [2], the Ki is 13.9 nM.

In the case of `O=S1(=O)CC2(CCN(CCOc3cnc([C@H]4CCC[C@H](C(F)(F)F)C4)nc3)CC2)C1` (relative stereo) [Compound 248A, 7-(2-((2-((trans)-3-(Trifluoromethyl)cyclohexyl)pyrimidin-5-yl)oxy)ethyl)-2-thia-7-azaspiro[3.5]nonane 2,2-dioxide], the values for the EC50 (in the assay with EpiSC-derived OPCs; in assay [1]) were 94.8 nM and 24.4 nM, respectively. Besides, the Ki in assay [2] was determined as 14.9 nM.

For `O=S1(=O)CC2(CCN(CCOc3cnc([C@H]4CC[C@H](C(F)(F)F)CC4)c(Cl)c3)CC2)C1` [Compound 246, 7-(2-((5-Chloro-6-((trans)-4-(trifluoromethyl)cyclohexyl)pyridin-3-yl)oxy)ethyl)-2-thia-7-azaspiro[3.5]nonane 2,2-dioxide], the EC50 in the assay on EpiSC-derived OPCs amounted to 2.62 nM; in assay [1], 1.26 nM. Further, in assay [2], the inhibitory constant (Ki) amounted to 12.2 nM.

For the compound `O=S1(=O)CCC2(CC1)CN(CCOc1ccc(F)c(Cl)c1)C2` [Compound 219, 2-(2-(3-Chloro-4-fluorophenoxy)ethyl)-7-thia-2-azaspiro[3.5]nonane 7,7-dioxide], the figures for the EC50 (in the assay on EpiSC-derived OPCs; in assay [1]) were 22.2 nM and 6.9 nM, respectively. The compound further came in with a Ki in assay [2] of 22.1 nM.

On to `O=S1(=O)CC2(CCN(CCOc3cnc([C@H]4CC[C@H](C(F)(F)F)CC4)c(F)c3)CC2)C1` [Compound 249, 7-(2-((5-Fluoro-6-((trans)-4-(trifluoromethyl)cyclohexyl)pyridin-3-yl)oxy)ethyl)-2-thia-7-azaspiro[3.5]nonane 2,2-dioxide], for which the EC50 is 74.1 nM in the assay with EpiSC-derived OPCs and 25.6 nM in assay [1]. The Ki in assay [2] is 31.6 nM.

On to `C[C@H](Cc1ccc(C(F)(F)F)cc1)CN1CCC2(CC1)CS(=O)(=O)C2` (single isomer, unassigned) [216B*], for which the EC50 in the assay on EpiSC-derived OPCs stood at 3.3 nM; in assay [1], 0.99 nM. In assay [2], the Ki was 15.6 nM.

With `O=S1(=O)CC2(CCN(CCOc3cnc([C@H]4CCC[C@@H](C(F)(F)F)C4)nc3)CC2)C1` (relative stereo) [Compound 248B, 7-(2-((2-((cis)-3-(trifluoromethyl)cyclohexyl)pyrimidin-5-yl)oxy)ethyl)-2-thia-7-azaspiro[3.5]nonane 2,2-dioxide], the EC50 in the assay on EpiSC-derived OPCs stood at 74.1 nM; in assay [1] it was 25.6 nM. The compound also registered a Ki in assay [2] of 31.6 nM.

On to `CC(Cc1ccc(C2(C)CC2)cc1)CN1CCC2(C1)CS(=O)(=O)C2` (racemic) [Compound 111A, 6-(2-Methyl-3-(4-(1-methylcyclopropyl)phenyl)propyl)-2-thia-6-azaspiro[3.4]octane 2,2-dioxide], for which the concentration giving a half-maximal response (EC50) in the assay on EpiSC-derived OPCs was 20 nM; in assay [1], 1.3 nM. Further, the Ki in assay [2] stood at 8.57 nM.

As for `O=S1(=O)CC2(CCN(CCOc3cnc(C4CCCCC4)c(Cl)c3)CC2)C1` [Compound 240, 7-[2-[(5-Chloro-6-cyclohexyl-3-pyridyl)oxy]ethyl]-26-thia-7-azaspiro[3.5]nonane 2,2-dioxide], the figures for the EC50 (in the assay with EpiSC-derived OPCs; in assay [1]) were 346 nM and 75.5 nM, respectively. Further, affinity in assay [2] was put at a Ki of 1.96 nM.

For the compound `CCC(C)(C)c1ccc(CC(C)CN2CCC3(CC2)CS(=O)(=O)C3)cc1` (racemic) [Compound 110, 7-(2-Methyl-3-(4-(tert-pentyl)phenyl)propyl)-2-thia-7-azaspiro[3.5]nonane 2,2-dioxide], the results for the EC50 (in the assay on EpiSC-derived OPCs; in assay [1]) were 30 nM and 22 nM, respectively. In assay [2], this compound came in with an inhibition constant (Ki) of 8.44 nM.

As for `O=S1(=O)CC2(CCN(CCOc3ccc(F)c(F)c3)CC2)C1` [Example 158, 7-(2-(3,4-Difluorophenoxy)ethyl)-2-thia-7-azaspiro[3.5]nonane 2,2-dioxide], the concentration for a half-maximal effect (EC50) in the assay with EpiSC-derived OPCs came to 2.9 nM; in assay [1], 2 nM. This compound came in with a Ki in assay [2] of 10 nM.
